The values that follow come from ChEMBL document CHEMBL1201862, “PubChem BioAssay data set” (2004).

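In this assay, cells in 96-well plates receive the compound at five concentrations for 48 hours. Endpoints are linearly interpolated between the surrounding concentrations. Abbreviation: GI50, concentration required for 50% inhibition of growth.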 Activity calls are given as the source filed them. Rule as the data show it: active = GI50 up to about 1.1 µM and inactive = higher.

Some test systems named below: 786-0; A549; DU-145; EKVX; HCC 2998; HCT-116; HOP-92; HT-29; K562; LOX IMVI; MDA-MB-435; MDA-N; NCI-H23; NCI-H460; NCI/ADR-RES; OVCAR-5; OVCAR-8; SF-268; SW-620; UO-31.
What all share (experiment): NCI-60 cell line screen, 48 h

On to `CC(=O)N1C(C(=O)NN2CCOCC2)CSC1c1ccccc1` (stereo not given), for which the GI50 in the assay with 786-0, with A549, with DU-145, in the assay on EKVX, with HCC 2998 and in the assay on HCT-116 was > 100 µM (inactive) each time. In addition, the GI50 with HOP-92, in the assay with HT-29, in the assay on K562, with LOX IMVI, in the assay on MDA-MB-435 and in the assay on MDA-N was > 100 µM (inactive) in each case. Moreover, the GI50 with NCI-H23, in the assay with NCI-H460, in the assay with NCI/ADR-RES, in the assay with OVCAR-5, with OVCAR-8 and in the assay on SF-268 was > 100 µM (inactive) each time. For the same compound, the GI50 in the assay with SW-620 and in the assay with UO-31 was > 100 µM (inactive) each time.
On to `O=C(O)c1c2c(cc3c1CC(Cc1ccccc1)C3=O)CCC2` (stereo not given), for which the GI50 in the assay on 786-0 was > 100 µM (inactive); in the assay on A549 it was 19.5 µM (inactive); with DU-145, > 100 µM (inactive); in the assay on EKVX it was > 100 µM (inactive); in the assay on HCC 2998, > 100 µM (inactive); in the assay with HCT-116, 89.9 µM (inactive). The GI50 is 29.5 µM (inactive) with HOP-92; 57.8 µM (inactive) with HT-29; 75.2 µM (inactive) with K562; 26 µM (inactive) in the assay with LOX IMVI; > 100 µM (inactive) with MDA-MB-435; > 100 µM (inactive) in the assay on MDA-N. Further, the GI50 is > 100 µM (inactive) in the assay with NCI-H23; 74.8 µM (inactive) with NCI-H460; > 100 µM (inactive) in the assay with NCI/ADR-RES; > 100 µM (inactive) in the assay with OVCAR-5; > 100 µM (inactive) in the assay with OVCAR-8; > 100 µM (inactive) in the assay on SF-268. Also, the GI50 was > 100 µM (inactive) in the assay on SW-620 and 16.6 µM (inactive) in the assay on UO-31.
For the compound `N=C(N)NS(=O)(=O)c1ccc(NNc2c3ccccc3nc3c(C(=O)Nc4ccc(S(N)(=O)=O)cc4)cccc23)cc1`, the GI50 in the assay with 786-0 is 21.7 µM (inactive); with A549, > 100 µM (inactive); with DU-145, 94 µM (inactive); in the assay on EKVX it was 80.2 µM (inactive); with HCC 2998, 19.5 µM (inactive); in the assay with HCT-116 it was 28.9 µM (inactive). Moreover, the GI50 in the assay with HOP-92 was 15.1 µM (inactive); in the assay with HT-29, 23.4 µM (inactive); in the assay on K562, 19.9 µM (inactive); in the assay with LOX IMVI it was 10.4 µM (inactive); in the assay with MDA-MB-435, 72.8 µM (inactive); in the assay with MDA-N, 76.6 µM (inactive). Moreover, the GI50 was 51.1 µM (inactive) in the assay on NCI-H23; 19.7 µM (inactive) in the assay on NCI-H460; > 100 µM (inactive) in the assay with NCI/ADR-RES; 76 µM (inactive) in the assay with OVCAR-5; 36.1 µM (inactive) with OVCAR-8; 16.8 µM (inactive) in the assay on SF-268. The results for the GI50 in the assay with SW-620 and in the assay with UO-31 were 22.1 µM (inactive) and > 100 µM (inactive), respectively.
Regarding `Nc1nc(NCC2(CO)CCC2)cc(=O)[nH]1`, the GI50 in the assay with 786-0, in the assay with A549, with DU-145, with EKVX, with HCC 2998 and in the assay with HCT-116 was > 100 µM (inactive) throughout. Also, the GI50 with HOP-92, in the assay on HT-29, in the assay on K562, with LOX IMVI, in the assay with MDA-MB-435 and in the assay on MDA-N was > 100 µM (inactive) throughout. In addition, the GI50 with NCI-H23, in the assay with NCI-H460, in the assay on NCI/ADR-RES, with OVCAR-5, with OVCAR-8 and with SF-268 was > 100 µM (inactive) in each case. Also, the GI50 in the assay on SW-620 and in the assay with UO-31 was > 100 µM (inactive) in each case.
As to `COc1ccc(/C=C/C(=N/NC(=O)N/N=C(/C=C/c2ccc(OC)cc2)C(C)C)C(C)C)cc1`, the GI50 with 786-0 is > 100 µM (inactive); in the assay with A549, 45.3 µM (inactive); with DU-145 it was 80.2 µM (inactive); in the assay with EKVX it was 40 µM (inactive); with HCC 2998 it was 38.7 µM (inactive); with HCT-116, 66.1 µM (inactive). In addition, the GI50 was 66.7 µM (inactive) in the assay with HOP-92; 42.3 µM (inactive) in the assay with HT-29; 37.8 µM (inactive) with K562; > 100 µM (inactive) in the assay with LOX IMVI; > 100 µM (inactive) in the assay on MDA-MB-435; > 100 µM (inactive) in the assay with MDA-N. The GI50 in the assay with NCI-H23 was > 100 µM (inactive); in the assay on NCI-H460, 48.3 µM (inactive); with NCI/ADR-RES it was 69.7 µM (inactive); with OVCAR-5 it was 99.5 µM (inactive); in the assay on OVCAR-8 it was 75 µM (inactive); in the assay on SF-268, > 100 µM (inactive). Besides, the GI50 in the assay on SW-620 is > 100 µM (inactive); in the assay on UO-31, 76.2 µM (inactive).
As for `NC(=O)NCCCC(NC(=O)OCCCCCCn1ccc(=O)[nH]c1=O)C(=O)O` (stereo not given), the GI50 with 786-0, in the assay with A549, in the assay with DU-145, in the assay on EKVX, in the assay with HCC 2998 and in the assay on HCT-116 was > 100 µM (inactive) in each case. Further, the GI50 in the assay on HOP-92, with HT-29, in the assay with K562, in the assay with LOX IMVI, in the assay with MDA-MB-435 and in the assay on MDA-N was > 100 µM (inactive) each time. The GI50 in the assay on NCI-H23, with NCI-H460, in the assay with NCI/ADR-RES, in the assay on OVCAR-5, with OVCAR-8 and in the assay with SF-268 was > 100 µM (inactive) each time. Further, the GI50 in the assay on SW-620 and with UO-31 was > 100 µM (inactive) throughout.
Regarding `N#Cc1c(O)nc2nn3c4ccc5ccccc5c4nnc3c2c1-c1ccc(Cl)cc1`, the GI50 was 2.59 µM (inactive) in the assay with 786-0; 4.57 µM (inactive) with A549; 1.95 µM (inactive) in the assay on DU-145; 3.93 µM (inactive) with EKVX; 2.68 µM (inactive) in the assay on HCC 2998; 2.4 µM (inactive) in the assay on HCT-116. The GI50 in the assay with HOP-92 was 2.3 µM (inactive); in the assay with HT-29, 2.94 µM (inactive); with K562 it was 4.16 µM (inactive); with LOX IMVI, 1.83 µM (inactive); in the assay on MDA-MB-435 it was 3.3 µM (inactive); with MDA-N it was 2.52 µM (inactive). The GI50 in the assay with NCI-H23 was 1.97 µM (inactive); in the assay on NCI-H460 it was 2.24 µM (inactive); in the assay with NCI/ADR-RES, 4.55 µM (inactive); in the assay on OVCAR-5, 6.24 µM (inactive); in the assay with OVCAR-8 it was 2.27 µM (inactive); in the assay with SF-268, 2.51 µM (inactive). Besides, the values for the GI50 with SW-620 and in the assay with UO-31 were 2.03 µM (inactive) and 2.38 µM (inactive), respectively.
For the compound `N=c1c2c(ncn1N)Oc1c(c(-c3ccccc3)nn1-c1ccccc1)C2c1ccc(Cl)cc1` (stereo not given), the GI50 with 786-0 was 1.63 µM (inactive); in the assay with A549 it was 1.82 µM (inactive); with DU-145 it was 2.01 µM (inactive); in the assay on EKVX it was 1.82 µM (inactive); in the assay with HCC 2998, 0.762 µM (active); in the assay on HCT-116, 1.49 µM (inactive). Besides, the GI50 in the assay with HOP-92 was 1.71 µM (inactive); with HT-29 it was 1.39 µM (inactive); in the assay with K562 it was 0.731 µM (active); in the assay with LOX IMVI it was 1.48 µM (inactive); with MDA-MB-435 it was 1.62 µM (inactive); with MDA-N it was 1.82 µM (inactive). The GI50 in the assay with NCI-H23 is 1.87 µM (inactive); in the assay with NCI-H460, 1.42 µM (inactive); in the assay with NCI/ADR-RES, 1.68 µM (inactive); in the assay on OVCAR-5, 1.5 µM (inactive); in the assay with OVCAR-8 it was 1.95 µM (inactive); with SF-268, 1.71 µM (inactive). Further, the values for the GI50 with SW-620 and in the assay on UO-31 were 1.75 µM (inactive) and 1.64 µM (inactive), respectively.
Regarding `CCCC(=O)Nc1cn(COC)c(C(=O)N2C[C@H]3C[C@@]34C2=CC(=O)c2[nH]cc(C)c24)n1`, the GI50 was 2.79 µM (inactive) in the assay with 786-0; 12.2 µM (inactive) in the assay on A549; 1.38 µM (inactive) in the assay with DU-145; 11.2 µM (inactive) with EKVX; 2.89 µM (inactive) with HCC 2998; 4.68 µM (inactive) in the assay on HCT-116. Besides, the GI50 with HOP-92 was 8.05 µM (inactive); in the assay on HT-29, 7.35 µM (inactive); in the assay on K562, 5.31 µM (inactive); with LOX IMVI it was 7.14 µM (inactive); in the assay with MDA-MB-435 it was 6.81 µM (inactive); in the assay on MDA-N, 9.16 µM (inactive). Further, the GI50 in the assay with NCI-H23 is 2.02 µM (inactive); in the assay on NCI-H460, 3.24 µM (inactive); with NCI/ADR-RES, 6.21 µM (inactive); with OVCAR-5 it was 12.4 µM (inactive); in the assay with OVCAR-8, 2.69 µM (inactive); in the assay with SF-268 it was 5.12 µM (inactive). Besides, the GI50 is 3.66 µM (inactive) with SW-620 and 10.6 µM (inactive) in the assay with UO-31.
Take `CC(=O)O[C@H](C[C@@H](C)[C@H]1C(=O)[C@H](O)[C@@]2(C)C3CC[C@H]4C(C)(C)[C@@H](OC5OCC(O)C(O)C5O)CC[C@@]45C[C@@]35CC[C@]12C)[C@@H]1OC1(C)C` (stereo not given in full): the GI50 is 16.6 µM (inactive) with 786-0; 27.9 µM (inactive) in the assay with A549; 19 µM (inactive) in the assay on DU-145; 18 µM (inactive) with EKVX; 16.3 µM (inactive) in the assay on HCC 2998; 18.1 µM (inactive) in the assay with HCT-116. Besides, the GI50 is 16.9 µM (inactive) in the assay with HOP-92; 29.4 µM (inactive) in the assay on HT-29; 0.14 µM (active) with K562; 30.3 µM (inactive) with LOX IMVI; 17.7 µM (inactive) in the assay with MDA-MB-435; 19.3 µM (inactive) in the assay on MDA-N. The GI50 with NCI-H23 was 23.9 µM (inactive); in the assay with NCI-H460, 16.9 µM (inactive); in the assay on NCI/ADR-RES it was 47.3 µM (inactive); in the assay on OVCAR-5, 16.9 µM (inactive); with OVCAR-8, 20.2 µM (inactive); with SF-268, 20.7 µM (inactive). The GI50 was 32.4 µM (inactive) in the assay on SW-620 and 22.9 µM (inactive) with UO-31.
